Measurements as given in ChEMBL document CHEMBL5584243, “Discovery of JNJ-74856665: A Novel Isoquinolinone DHODH Inhibitor for the Treatment of AML” (J Med Chem, 2024).
Converted amounts (≈) assume the structure as drawn.

Key:
[1] = Half life in C57BL mouse at 2 mg/kg,iv measured upto 24 hrs by LC-MS/MS analysis; assay type: ADME, organism-based; conditions: in vivo
[2] = Oral bioavailability in C57BL mouse at 10 mg/kg measured upto 24 hrs by LC-MS/MS analysis; assay type: ADME, organism-based; conditions: in vivo
[3] = Plasma protein binding in C57BL mouse at 1 uM incubated for 6.5 hrs by LC-MS/MS analysis; assay type: ADME, cell-free; conditions: read-out: PPB (converted)
[4] = Plasma protein binding in human at 1 uM incubated for 6.5 hrs by LC-MS/MS analysis; assay type: ADME, cell-free; conditions: read-out: PPB (converted)
[5] = Passive permeability across apical to basolateral side in dog MDCK-MDR1 cells; assay type: ADME, cell-based, Canis lupus familiaris
[6] = Equilibrium solubility of compound in PBS at pH 7 incubated for 2 to 5 days by HPLC analysis; assay type: physicochemical; conditions: time 2-5 day
[7] = Volume of distribution at steady state in C57BL mouse at 2 mg/kg,iv measured upto 24 hrs by LC-MS/MS analysis; assay type: ADME, organism-based; conditions: in vivo, read-out: Vdss
[8] = Tmax in C57BL mouse at […] measured upto 24 hrs by LC-MS/MS analysis; assay type: ADME, organism-based; conditions: in vivo
[9] = Metabolic stability in mouse liver microsomes assessed as half life incubated upto 60 mins in presence of NADPH by LC-MS/MS analysis; assay type: ADME, Microsome
[10] = tested on: MOLM-13; test: Antiproliferative activity against human MOLM-13 cells assessed as inhibition of cell growth incubated for 72 hrs by CellTiter-Glo assay; assay type: functional, cell-based; conditions: MOLM-13, 72 h
[11] = Equilibrium solubility of compound in FaSSIF at pH 6.5 using amorphous form of sample incubated for 2 to 5 days by HPLC analysis; assay type: ADME; conditions: time 2-5 day
[12] = Equilibrium solubility of compound in PBS at pH 2 incubated for 2 to 5 days by HPLC analysis; assay type: physicochemical; conditions: time 2-5 day; for solubility thermodynamic: PBS
[13] = Cmax in C57BL mouse at […] measured upto 24 hrs by LC-MS/MS analysis; assay type: ADME, organism-based; conditions: in vivo
[14] = Equilibrium solubility of compound in SGF at pH 1 using amorphous form of sample incubated for 2 to 5 days by HPLC analysis; assay type: ADME; conditions: time 2-5 day
[15] = AUC (0 to infinity) in C57BL mouse at 2 mg/kg,iv measured upto 24 hrs by LC-MS/MS analysis; assay type: ADME, organism-based; conditions: in vivo
[16] = Metabolic stability in human liver microsomes assessed as half life incubated upto 60 mins in presence of NADPH by LC-MS/MS analysis; assay type: ADME, Microsome
[17] = Lipophilicity, logD of compound; assay type: physicochemical; conditions: octanol/water
[18] = molecular target: Dihydroorotate dehydrogenase (quinone), mitochondrial (Homo sapiens, UniProt Q02127); test: Inhibition of recombinant human DHODH followed by DHO substrate by DCIP dye absorbance based spectrophotometric analysis
Dihydroorotate dehydrogenase (quinone), mitochondrial, sequence (Q02127 whole entry): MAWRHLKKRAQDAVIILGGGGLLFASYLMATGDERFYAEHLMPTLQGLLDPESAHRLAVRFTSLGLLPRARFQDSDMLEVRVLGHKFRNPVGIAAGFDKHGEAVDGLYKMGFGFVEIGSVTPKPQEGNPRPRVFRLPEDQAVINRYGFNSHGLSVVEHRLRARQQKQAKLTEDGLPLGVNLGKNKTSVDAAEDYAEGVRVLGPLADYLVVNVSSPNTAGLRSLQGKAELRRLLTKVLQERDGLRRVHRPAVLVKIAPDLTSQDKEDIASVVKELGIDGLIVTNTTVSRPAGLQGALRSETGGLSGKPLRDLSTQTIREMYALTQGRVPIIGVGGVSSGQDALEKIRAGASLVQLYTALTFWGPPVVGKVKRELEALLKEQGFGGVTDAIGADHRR

[19] = tested on: MOLM-13; test: Antitumor activity against human MOLM-13 cells xenografted in NSG mouse assessed as tumor growth inhibition at po administrated for 21 days; assay type: functional, organism-based; conditions: time 21.0 day
[20] = tested on: MOLM-13; test: Antitumor activity against human MOLM-13 cells xenografted in NSG mouse assessed as tumor growth inhibition at 0.625 to 2.5 mg/kg,po administrated for 21 days relative to control; assay type: functional; conditions: dose 0.625-2.5 mg/kg, time 21 day
[21] = Equilibrium solubility of compound in FaSSIF at pH 6.5 using crystalline form incubated for 2 to 5 days by HPLC analysis; assay type: ADME; conditions: time 2-5 day
[22] = Equilibrium solubility of compound in SGF at pH 1 using crystalline form incubated for 2 to 5 days by HPLC analysis; assay type: ADME; conditions: time 2-5 day
[23] = molecular target: T1, Aryl hydrocarbon receptor (Homo sapiens, UniProt P35869); test: Activation of AhR (unknown origin) at 1 to 10 uM; conditions: dose 1-10 µM
T1 sequence (P35869 whole entry): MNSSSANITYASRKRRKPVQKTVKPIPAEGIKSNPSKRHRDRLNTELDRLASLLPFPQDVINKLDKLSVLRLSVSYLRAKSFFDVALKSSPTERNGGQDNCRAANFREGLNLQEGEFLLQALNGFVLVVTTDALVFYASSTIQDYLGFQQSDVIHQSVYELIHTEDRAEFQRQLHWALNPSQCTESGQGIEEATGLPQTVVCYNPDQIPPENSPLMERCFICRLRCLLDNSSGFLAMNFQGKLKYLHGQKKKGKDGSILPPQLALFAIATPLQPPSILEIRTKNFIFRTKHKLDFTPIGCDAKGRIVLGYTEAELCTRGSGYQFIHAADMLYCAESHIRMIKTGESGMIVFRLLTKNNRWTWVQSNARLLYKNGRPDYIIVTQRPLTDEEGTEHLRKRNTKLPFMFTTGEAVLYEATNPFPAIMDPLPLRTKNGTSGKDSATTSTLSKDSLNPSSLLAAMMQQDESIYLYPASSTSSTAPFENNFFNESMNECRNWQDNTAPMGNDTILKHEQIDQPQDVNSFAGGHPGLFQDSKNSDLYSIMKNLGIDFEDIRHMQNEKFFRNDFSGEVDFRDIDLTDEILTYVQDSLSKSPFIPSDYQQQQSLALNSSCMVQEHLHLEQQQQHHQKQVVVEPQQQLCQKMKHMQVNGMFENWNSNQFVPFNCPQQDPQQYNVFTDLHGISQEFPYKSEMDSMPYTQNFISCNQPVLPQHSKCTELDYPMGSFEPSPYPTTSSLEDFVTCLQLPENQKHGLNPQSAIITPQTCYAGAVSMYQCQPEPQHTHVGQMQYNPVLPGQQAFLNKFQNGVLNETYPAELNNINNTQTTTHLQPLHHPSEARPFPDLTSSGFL

SMILES | Papp A→B [5] | solubility thermodynamic [6] | half-life [9] | IC50 [10] | solubility thermodynamic [12] | half-life [16] | other results
CCn1c(CO)nn(-c2cc3c(C(C)C)cn(-c4c(C)cnc(OC)c4Cl)c(=O)c3cc2F)c1=O | 42.6 ×10⁻⁶ cm/s | 21 µM (≈ 10.5 µg/mL) | > 3 h | 2400 pM | 78 µM (≈ 39.2 µg/mL) | > 3 h | half-life [1]: 7 h; bioavailability [2]: 109%; fraction unbound at 6.5 h, 1 µM [3]: 0.038; fraction unbound at 6.5 h, 1 µM [4]: 0.059; Vd [7]: 2.1 L/kg; Tmax [8]: 1.5 h; solubility thermodynamic [11]: 16 µg/mL (≈ 31.9 µM); Cmax [13]: 4100 ng/mL; solubility thermodynamic [14]: < 5 µg/mL; AUC [15]: 82500 ng·h/mL
CCn1c(CO)nn(-c2cc3c([C@H](C)C(F)(F)F)cn(-c4ccccc4C)c(=O)c3cc2F)c1=O | 20.3 ×10⁻⁶ cm/s | 180 µM (≈ 88.3 µg/mL) | > 3 h | 590 pM | 164 µM (≈ 80.4 µg/mL) | > 3 h | –
CCn1c(CO)nn(-c2cc3c(C(C)C)cn(-c4ccc(F)cc4C)c(=O)c3cc2F)c1=O | 48.2 ×10⁻⁶ cm/s | 266 µM (≈ 121 µg/mL) | > 3 h | 670 pM | 25 µM (≈ 11.4 µg/mL) | > 3 h | logD [17]: 2.7
CCn1c(CO)nn(-c2nc(OC(C)C(F)(F)F)c(C(=O)Nc3c(F)cccc3Cl)cc2F)c1=O (stereo unspecified) | – | < 4 µM | – | 160 pM | – | – | IC50 [18]: 200 pM
Cc1oncc1C(=O)Nc1ccc(C(F)(F)F)cc1 [LEFLUNOMIDE] | – | – | – | – | – | – | Activity [23]: Active
CCn1c(CO)nn(-c2nc3c(C(C)C)cn(-c4c(F)cccc4Cl)c(=O)c3cc2F)c1=O | – | – | – | 440 pM | – | – | –
CCn1c(CO)nn(-c2cc3c(C4(C)CC4)cn(-c4c(F)cccc4Cl)c(=O)c3cc2F)c1=O | – | – | – | 3100 pM | – | – | –
C=C(C)c1cn(-c2c(F)cccc2Cl)c(=O)c2cc(F)c(-n3nc(CO)n(CC)c3=O)nc12 | – | – | – | 1100 pM | – | – | –
CCn1c(CO)nn(-c2cc3c(C(C)C)cn(-c4ccccc4Cl)c(=O)c3cc2F)c1=O | 50.7 ×10⁻⁶ cm/s | 155 µM (≈ 70.8 µg/mL) | > 3 h | 280 pM | 153 µM (≈ 69.9 µg/mL) | > 3 h | –
CCn1c(CO)nn(-c2cc3c(C(C)C)cn(-c4ccccc4C(F)(F)F)c(=O)c3cc2F)c1=O | 40.4 ×10⁻⁶ cm/s | 39 µM (≈ 19.1 µg/mL) | > 3 h | 630 pM | – | > 3 h | half-life [1]: 4.3 h; bioavailability [2]: 127%; fraction unbound at 6.5 h, 1 µM [3]: 0.067; fraction unbound at 6.5 h, 1 µM [4]: 0.063; Vd [7]: 1.2 L/kg; Tmax [8]: 1.3 h; solubility thermodynamic [11]: 97 µg/mL (≈ 198 µM); solubility ([12]; buffer): Not Active; Cmax [13]: 5700 ng/mL; solubility thermodynamic [14]: 17 µg/mL (≈ 34.7 µM); AUC [15]: 71100 ng·h/mL
CCn1c(CO)nn(-c2cc3c(C(C)C)cn(-c4cc(F)ccc4C)c(=O)c3cc2F)c1=O | 45.9 ×10⁻⁶ cm/s | 30 µM (≈ 13.6 µg/mL) | > 3 h | 860 pM | 30 µM (≈ 13.6 µg/mL) | > 3 h | –

The next lines start with results.

Papp A→B [5] | solubility thermodynamic [6] | half-life [9] | IC50 [10] | solubility thermodynamic [12] | half-life [16] | SMILES | other results
47.4 ×10⁻⁶ cm/s | 24 µM (≈ 10.9 µg/mL) | > 3 h | 690 pM | 23 µM (≈ 10.5 µg/mL) | > 3 h | CCn1c(CO)nn(-c2cc3c(C(C)C)cn(-c4c(C)cccc4F)c(=O)c3cc2F)c1=O | –
39 ×10⁻⁶ cm/s | 11 µM (≈ 5.2 µg/mL) | > 3 h | 560 pM | 228 µM (≈ 108 µg/mL) | 2.98 h | CCn1c(CO)nn(-c2cc3c(C(C)C)cn(-c4ccccc4C(F)F)c(=O)c3cc2F)c1=O | –
< 41 ×10⁻⁶ cm/s | 181 µM (≈ 88.8 µg/mL) | > 3 h | 420 pM | 184 µM (≈ 90.2 µg/mL) | > 3 h | CCn1c(CO)nn(-c2cc3c([C@@H](C)C(F)(F)F)cn(-c4ccccc4C)c(=O)c3cc2F)c1=O | half-life [1]: 4 h; bioavailability [2]: 98%; fraction unbound at 6.5 h, 1 µM [3]: 0.093; fraction unbound at 6.5 h, 1 µM [4]: 0.1; logD [17]: 2.6; Vd [7]: 1.3 L/kg; Tmax [8]: 1.5 h; solubility thermodynamic [11]: 41 µg/mL (≈ 83.6 µM); Cmax [13]: 4500 ng/mL; solubility thermodynamic [14]: < 5 µg/mL; AUC [15]: 39000 ng·h/mL
25.1 ×10⁻⁶ cm/s | 20 µM (≈ 9.05 µg/mL) | > 3 h | 1000 pM | 19 µM (≈ 8.6 µg/mL) | > 3 h | CCn1c(CO)nn(-c2cc3c(C(C)C)cn(-c4ccccc4OC)c(=O)c3cc2F)c1=O | –
37.3 ×10⁻⁶ cm/s | 157 µM (≈ 70.7 µg/mL) | 1.83 h | 1800 pM | 193 µM (≈ 86.9 µg/mL) | > 3 h | CCc1ccccc1-n1cc(C(C)C)c2cc(-n3nc(CO)n(CC)c3=O)c(F)cc2c1=O | –
30.1 ×10⁻⁶ cm/s | 19 µM (≈ 8.37 µg/mL) | > 3 h | 2100 pM | 19 µM (≈ 8.37 µg/mL) | > 3 h | CCn1c(CO)nn(-c2cc3c(C(C)C)cn(-c4ccccc4F)c(=O)c3cc2F)c1=O | –
24.5 ×10⁻⁶ cm/s | < 4 µM | > 3 h | 220 pM | < 4 µM | > 3 h | CCn1c(CO)nn(-c2cc3c(C(C)C)cn(-c4c(F)cccc4Cl)c(=O)c3cc2F)c1=O | half-life [1]: 5.1 h; bioavailability [2]: 135%; fraction unbound at 6.5 h, 1 µM [3]: 0.024; fraction unbound at 6.5 h, 1 µM [4]: 0.042; logD [17]: 3.1; Activity [19]: Dose-Dependent Effect; Vd [7]: 1.3 L/kg; Tmax [8]: 0.83 h; Cmax [13]: 8200 ng/mL; AUC [15]: 71800 ng·h/mL; TGI [20]: >80%; solubility thermodynamic [21]: < 5 µg/mL; solubility thermodynamic [22]: < 5 µg/mL
23.5 ×10⁻⁶ cm/s | 189 µM (≈ 85.9 µg/mL) | > 3 h | 5600 pM | 235 µM (≈ 107 µg/mL) | > 3 h | CCn1c(CO)nn(-c2cc3c(C(C)C)cn(-c4cccc(F)c4C)c(=O)c3cc2F)c1=O | –
